Source: US10344065B2, “Method for treating Alzheimer's disease and method for downregulating protein aggregation in brain” (National Cheng Kung University, priority 2017, dated 2019)

How the values were obtained:
[1] = system: WWOX7-21, WWOX286-299, and ANKRD40266-281 peptides; assay: Polymerization of serine-containing WWOX and ANKRD40 peptides in PBS; type: biochemical
Procedure: (§1) FIG. 5 includes photos and diagrams showing that Zfra suppresses polymerization or aggregation of serine-containing TPC6AΔ and other peptides in PBS. Zfra4-10 was incubated with an indicated serine-containing peptide in PBS at room temperature for 24 hours (final 200 μM each peptide). The mixtures were subjected to nonreducing sodium dodecyl sulfate polyacrylamide gel electrophoresis (SDS-PAGE). (A) Full-length Zfra or red-fluorescent TMR-Zfra blocked aggregation of Aβ42 (lanes 3, 5, and 7). […] The membrane was stained with antibody against Aβ. (B) Zfra4-10 and one of the TPC6AΔ peptides were resuspended in Milli-Q water or PBS and incubated for 24 hours at room temperature. Zfra4-10 suppressed the polymerization of serine-containing peptides. Reduction in intensity=[1−(Z.P)/(Z+P)]×100%, where Z=Zfra4-10, P=an indicated peptide, and Z.P=peptide mixture. […] Zfra4-10 suppressed polymerization of these peptides in PBS.
(§2) Zfra and serine-containing peptides were synthesized by Genemed Synthesis (San Antonio, Tex., USA), (1) Zfra1-31, […] (SEQ ID NO: 2); (2) Zfra4-10, RRSSSCK (SEQ ID NO: 1); (3) WWOX7-21, AGLDDTDSEDELPPG (SEQ ID NO: 3); (4) pS14-WWOX7-21, AGLDDTDpSEDELPPG (SEQ ID NO: 4); (5). WWOX286-299, DYWAMLAYNRSKLC (SEQ ID NO: 5); (6) pY287-WWOX286-299, DpYWAMLAYNRSKLC (SEQ ID NO: 6); (7) TPC6A24-38, DPGPGGQKMSLSVLE (SEQ ID NO: 7); (8) pS35-TPC6A24-38, DPGPGGQKMSLpSVLE (SEQ ID NO: 8); (9) TPC6A84-100, KDLWVAVFQKQMDSLR (SEQ ID NO: 9); (10) ANKRD40266-281, RIQNPSLRENDFIEIE (SEQ ID NO: 10); (11) pS271-ANKRD40266-281, RIQNPpSLRENDFIEIE (SEQ ID NO: 11); (12) tetramethylrhodamine-labeled Zfra (TMR-Zfra), the full-length Zfra1-31 was labeled with a red-fluorescent […] fluorescent probe tetramethylrhodamine. The peptide stocks were made as 10 mM in degassed sterile Milli-Q water. Each tube was flushed with nitrogen and stored in −80° C. freezer. For tail vein injections, peptides were freshly prepared in degassed Milli-Q water at 1-4 mM in 100-μL Milli-Q. GenBank accession for ANKRD40 is EU164539. Aβ peptides were from AnaSpec, (1) Aβ42: […] (SEQ ID NO: 12); (2) Aβ40: […] […]

[2] = target: T1, WWOX7-21, WWOX286-299, and ANKRD40266-281 peptides (Homo sapiens, UniProt Q9NZC7); assay: as above; type: biochemical
T1 construct: purchased Genemed Synthesis
Procedure: as §1, §2

melanoma B16F10 cells = assay: B16F10 metastasis to the lung in nude mice; type: in vivo, mouse
Procedure: FIG. 4 includes photos showing that Zfra suppresses melanoma B16F10-mediated neurodegeneration in the hippocampus. Nude mice were preinjected with 100 μL, of sterile Milli-Q water or Zfra4-10 (1 mM in sterile water) in 3 consecutive weeks. After treatment for a week, these mice were inoculated with melanoma B16F10 cells on both flanks (2×10^5 cells in 100-μL, PBS). Mice were sacrificed when the tumor sizes grew up to 2000-3000 mm^3 in about a month. (A) Zfra blocked neurodegeneration in the hippocampus (top panel) and prevented the formation of TPC6AΔ plaques in the cortex (bottom panel), which negatively correlates with pS14-WWOX expression. Note the presence of condensed apoptotic nuclei in the hippocampal neurons in the control mice, (B) Metastasis of B16F10 cells to the lung was blocked in Zfra-treated mice. Compared to controls, Zfra suppressed p-S14WWOX expression in the lung by ˜72% suppression (three sections). […] (C and D) The non-spatial learning and memory were determined by novel object recognition task for both 3×Tg and Wwox+/− mice. […]
Six- to eight-week-old male nude (BALB/cAnN.Cg-Foxn1^nu/CrlNarl) mice (National Laboratory Animal Center, Taiwan) were used. […] Tumor volumes were measured daily and calculated using the equation, D×(d)^2/2, where D and d are the major and minor diameters, respectively. […] Z-cell distribution in organs was determined under fluorescence microscopy.

TPC6AΔ peptides = assay: Aggregation of serine-containing TPC6AΔ peptides in PBS; type: biochemical; details: 24 hours, room temperature
Procedure: as §1
Zfra and serine-containing peptides were synthesized by Genemed Synthesis (San Antonio, Tex., USA), (1) Zfra1-31, […] (SEQ ID NO: 2); (2) Zfra4-10, RRSSSCK (SEQ ID NO: 1); (3) WWOX7-21, AGLDDTDSEDELPPG (SEQ ID NO: 3); (4) pS14-WWOX7-21, AGLDDTDpSEDELPPG (SEQ ID NO: 4); (5). […]

## RRSSSCK [Zfra4-10, truncated zinc finger-like peptide, amino acids 4-10 of Zfra]
[1]
  polymerization of phosphorylated WWOX7-21 and ANKRD40266-281: had apparent effects
  polymerization or aggregation of non-phosphorylated WWOX7-21, WWOX286-299, ANKRD40266-281: effectively blocked
[2]
  aggregation of pY287-WWOX286-299: did not effectively block
Melanoma B16F10 cells
  B16F10 metastasis to the lung: blocked
TPC6AΔ peptides
  aggregation of TPC6AΔ peptides (TPC6AΔ24-38, pS35-TPC6AΔ24-38, TPC6AΔ84-100): effectively blocked
